Source: patent publication US20260317333A1, “Heteroaryl Compounds as Ligand Directed Degraders of IRAK4” (Celgene Corporation, priority 2023, published 2026)
Structures can show the parent of a compound that is named as a salt.

Molecular target: T1, IRAK4 (Homo sapiens, UniProt Q9NWZ3)
T1 sequence (Q9NWZ3 1-460): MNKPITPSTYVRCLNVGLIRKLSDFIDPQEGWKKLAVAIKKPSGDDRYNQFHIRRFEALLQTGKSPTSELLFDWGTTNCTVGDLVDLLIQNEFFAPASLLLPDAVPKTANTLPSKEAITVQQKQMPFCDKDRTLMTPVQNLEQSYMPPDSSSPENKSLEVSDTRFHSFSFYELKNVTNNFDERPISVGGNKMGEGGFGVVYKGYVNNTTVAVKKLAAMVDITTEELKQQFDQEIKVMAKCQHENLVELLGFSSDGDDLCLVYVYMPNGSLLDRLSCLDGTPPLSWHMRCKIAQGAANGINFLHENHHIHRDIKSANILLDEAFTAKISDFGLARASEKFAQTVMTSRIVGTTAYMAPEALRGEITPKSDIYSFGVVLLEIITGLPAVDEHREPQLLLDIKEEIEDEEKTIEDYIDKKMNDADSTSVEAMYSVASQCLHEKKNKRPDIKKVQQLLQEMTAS
Test: ALE THP1 HTRF (IRAK4 degradation in THP1 cells, HTRF with anti-IRAK4 antibodies)
Type: cell-based
Parameters: THP1 Homogeneous Time Resolved Fluorescence (ALE THP1 HTRF) Procedure; endogenous in cells; host or cells: THP1
Details: THP1 cell lysate; for DC50: read-out: ALE THP1 HTRF EC50
Description: Cell culture media was prepared in a tissue culture hood in a sterile environment by adding 10% FBS and 1% Penicillin Streptomycin to 500 mL no phenol red RPMI 1640 media. The media was filtered through a Nalgene Bottle Top Filter and stored at 4° C.
For Homogenous Time Resolved Fluorescence (HTRF) assays, a Cisbio HTRF kit was used, which included: Lysis Buffer #1 4×, Blocking Reagent #3 100×, 20× Antibody 1 (Anti-IRAK4 d2), 20× Antibody 2 (Anti-IRAK4 k), and Detection Buffer.
4× Lysis Buffer was stored at 4° C. For use as 1× Lysis buffer, the 4× solution was diluted with de-ionized water (distilled water, Gibco Cat. #15230279) and 100× Blocking Reagent in a 1:3:0.04 volume ratio.
20× Antibody Solution aliquots were stored at −80° C. and the Detection Buffer was stored at 4° C. For use as a 1× Antibody Solution, the 20× Antibody Solution aliquot was diluted with Detection Buffer in a 1:19 volume ratio.
Cells were lysed at room temperature for 45 min with shaking. A BCA protein assay was performed and normalization was conducted to the desired total protein concentration with 1× lysis buffer. Next, 1× Antibody Solutions were prepared by adding 380 μL Detection Buffer to 20 μL 20× Antibody Solution aliquots and mixing well. 1× Antibody Solutions were combined 1:1 and briefly vortexed. For control wells, 20 μL 1× anti IRAK4-k Antibody Solution was saved. The 384-well plate (ProxiPlate-384 Plus, Perkin Elmer Cat. #6008289) was loaded by adding 4 μL of the mixed Antibody Solution to empty wells using a single channel repeater. Using a multi-channel repeater, 16 μL lysate was added per well, and any bubbles that were formed were popped with 20 μL pipette tips and Kimwipe edges. In column 10, triplicates of each control were prepared. In wells A10, B10, and C10, buffer control was prepared by adding 16 μL Lysis Buffer and 4 μL Detection Buffer. In wells D10, E10, and F10, cryptate control was prepared by adding 16 μL Lysis Buffer, 2 μL Detection Buffer, and 2 μL 1× anti-IRAK4-k Antibody Solution. In wells G10, H10, and I10, a negative control was prepared by adding 16 μL Lysis Buffer and 4 μL mixed Antibody Solution. The plate was sealed with a clear seal and covered with an aluminum lid. The plate was spun down at 800 g for 5 min and incubated in the dark at room temperature overnight. The next day, the plate was spun down at 800 g for 5 min. The samples were analyzed by a plate reader (Envision, PerkinElmer) using the Desnor 384 HTRF program.

Row | ALE THP1 HTRF YMIN | DC50 | Structure (SMILES)
1 | 12% | 11 nM | N[C@@H]1C[C@@H](F)CN(c2ccn3ncc(C(=O)Nc4cn([C@H]5CC[C@H](CCN6CCC(c7ccc(C8CCC(=O)NC8=O)cc7)CC6)CC5)nc4C(F)F)c3n2)C1 (stereo partly shown) [Compound P-20]
2 | 15% | 10 nM | N[C@@H]1C[C@@H](F)CN(c2ccn3ncc(C(=O)Nc4cn([C@H]5CC[C@H](CCN6CCN(c7ccc(C8CCC(=O)NC8=O)cc7)CC6)CC5)nc4C(F)F)c3n2)C1 (stereo partly drawn) [Compound P-21, N-[3-(Difluoromethyl)-1-[4-[2-[4-[4-(2,6-dioxo-3-piperidyl)phenyl]piperazin-1-ylethyl]cyclohexyl]pyrazol-4-yl]-5-[(3R,5R)-3-amino-5-fluoro-1-piperidyl]pyrazolo[1,5-a]pyrimidine-3-carboxamide formic acid salt]
3 | 12% | 12 nM | N[C@@H]1C[C@@H](F)CN(c2ccn3ncc(C(=O)Nc4cn([C@H]5CC[C@H](CCN6CCC(Nc7cccc(C8CCC(=O)NC8=O)c7)CC6)CC5)nc4C(F)F)c3n2)C1 (stereo partly drawn) [Compound P-24, 5-((3R,5R)-3-Amino-5-fluoropiperidin-1-yl)-N-(3-(difluoromethyl)-1-((1r,4r)-4-(2-(4-((3-(2,6-dioxopiperidin-3-yl)phenyl)amino)piperidin-1-yl)ethyl)cyclohexyl)-1H-pyrazol-4-yl) pyrazolo[1,5-a]pyrimidine-3-carboxamide dihydrochloride]
4 | >95% | > 10000 nM | N[C@@H]1C[C@@H](F)CN(c2ccn3ncc(C(=O)Nc4cn([C@H]5CC[C@H](C(=O)N[C@H]6CC[C@@H](c7ccc(C8CCC(=O)NC8=O)cn7)CC6)CC5)nc4C(F)F)c3n2)C1 (stereo partly shown) [Compound P-31]
5 | 21% | 5 nM | N[C@@H]1C[C@@H](F)CN(c2ccn3ncc(C(=O)Nc4cn([C@H]5CC[C@H](C(=O)NC6CCN(c7ccc(C8CCC(=O)NC8=O)cn7)CC6)CC5)nc4C(F)F)c3n2)C1 (stereo partly drawn) [Compound P-32, N-[3-(Difluoromethyl)-1-[4-[[1-[5-(2,6-dioxo-3-piperidyl)-2-pyridyl]-4-piperidyl]carbamoyl]cyclohexyl]pyrazol-4-yl]-5-[(3R,5R)-3-amino-5-fluoro-1-piperidyl]pyrazolo[1,5-a]pyrimidine-3-carboxamide hydrochloride]
6 | 22% | 3 nM | N[C@@H]1C[C@@H](F)CN(c2ccn3ncc(C(=O)Nc4cn([C@H]5CC[C@H](C(=O)N[C@H]6CC[C@H](c7ccc(C8CCC(=O)NC8=O)cn7)CC6)CC5)nc4C(F)F)c3n2)C1 (stereo partly shown) [Compound P-33]

The remaining lines, values behind:

Row | Structure (SMILES) | ALE THP1 HTRF YMIN | DC50
7 | N[C@@H]1C[C@@H](F)CN(c2ccn3ncc(C(=O)Nc4cn([C@H]5CC[C@H](C(=O)N6CCC7(CC6)CN(c6cccc(C8CCC(=O)NC8=O)c6)C7)CC5)nc4C(F)F)c3n2)C1 (stereo partly shown) [Compound P-17] | 73% | > 10000 nM
8 | N[C@@H]1C[C@@H](F)CN(c2ccn3ncc(C(=O)Nc4cn([C@H]5CC[C@H](CN6CCC7(CC6)CN(c6cccc(C8CCC(=O)NC8=O)c6)C7)CC5)nc4C(F)F)c3n2)C1 (stereo partly shown) [Compound P-18] | 13% | 9180 nM
9 | CN(CC1CCN(C[C@H]2CC[C@H](n3cc(NC(=O)c4cnn5ccc(N6C[C@H](N)C[C@@H](F)C6)nc45)c(C(F)F)n3)CC2)CC1)c1cccc(C2CCC(=O)NC2=O)c1 (stereo partly drawn) [Compound P-19, N-[3-(Difluoromethyl)-1-[4-[4-[[3-(2,6-dioxo-3-piperidyl)-N-methyl-anilino]methyl]-1-piperidyl]methyl]cyclohexyl]pyrazol-4-yl]-5-[(3R,5R)-3-amino-5-fluoro-1-piperidyl]pyrazolo[1,5-a]pyrimidine-3-carboxamide dihydrochloride] | 11% | 10 nM
10 | N[C@@H]1C[C@@H](F)CN(c2ccn3ncc(C(=O)Nc4cn([C@H]5CC[C@H](CCN6CCN(c7cccc(C8CCC(=O)NC8=O)c7)CC6)CC5)nc4C(F)F)c3n2)C1 (stereo partly shown) [Compound P-22] | 43% | 3010 nM
11 | N[C@@H]1C[C@@H](F)CN(c2ccn3ncc(C(=O)Nc4cn([C@H]5CC[C@H](CCN6CCC7(CC6)CN(c6ccc(C8CCC(=O)NC8=O)cc6)C7)CC5)nc4C(F)F)c3n2)C1 (stereo partly drawn) [Compound P-23, N-[3-(Difluoromethyl)-1-[4-[2-[2-[4-(2,6-dioxo-3-piperidyl)phenyl]-2,7-diazaspiro[3.5]nonan-7-yl]ethyl]cyclohexyl]pyrazol-4-yl]-5-[(3R,5R)-3-amino-5-fluoro-1-piperidyl]pyrazolo[1,5-a]pyrimidine-3-carboxamide formic acid salt] | 15% | 11 nM
12 | N[C@@H]1C[C@@H](F)CN(c2ccn3ncc(C(=O)Nc4cn([C@H]5CC[C@H](C(=O)NC6CCN(c7ccc(C8CCC(=O)NC8=O)nc7)CC6)CC5)nc4C(F)F)c3n2)C1 (stereo partly shown) [Compound P-25] | 15% | 6 nM
13 | N[C@@H]1C[C@@H](F)CN(c2ccn3ncc(C(=O)Nc4cn([C@H]5CC[C@H](CCN6CCC7(CC6)CN(c6cccc(C8CCC(=O)NC8=O)c6)C7)CC5)nc4C(F)F)c3n2)C1 (stereo partly shown) [Compound P-26] | 7% | 15 nM
14 | N[C@@H]1C[C@@H](F)CN(c2ccn3ncc(C(=O)Nc4cn(C5CCN(CCN6CCN(c7ccc(C8CCC(=O)NC8=O)cc7)CC6)CC5)nc4C(F)F)c3n2)C1 (stereo partly drawn) [Compound P-27, 5-((3R,5R)-3-Amino-5-fluoropiperidin-1-yl)-N-(3-(difluoromethyl)-1-(1-(2-(4-(4-(2,6-dioxopiperidin-3-yl)phenyl)piperazin-1-yl)ethyl)piperidin-4-yl)-1H-pyrazol-4-yl) pyrazolo[1,5-a]pyrimidine-3-carboxamide trihydrochloride] | 16% | 10 nM
15 | N[C@@H]1C[C@@H](F)CN(c2ccn3ncc(C(=O)Nc4cn([C@H]5CC[C@H](CCN6CCC[C@H](c7ccc(C8CCC(=O)NC8=O)cc7)C6)CC5)nc4C(F)F)c3n2)C1 (stereo partly shown) [Compound P-28] | >95% | > 10000 nM
16 | N[C@@H]1C[C@@H](F)CN(c2ccn3ncc(C(=O)Nc4cn([C@H]5CC[C@H](C(=O)N[C@H]6CC[C@@H](c7ccc(C8CCC(=O)NC8=O)nc7)CC6)CC5)nc4C(F)F)c3n2)C1 (stereo partly shown) [Compound P-30] | >95% | > 10000 nM
17 | N[C@@H]1C[C@@H](F)CN(c2ccn3ncc(C(=O)Nc4cn([C@H]5CC[C@H](C(=O)N[C@H]6CC[C@H](c7ccc(C8CCC(=O)NC8=O)nc7)CC6)CC5)nc4C(F)F)c3n2)C1 (stereo partly shown) [Compound P-34] | 13% | 5 nM
